Columns and labels:
[1] = DVS analyses of the monofumarate salt (Example 5, Experiment Reference 4); format: physicochemical; settings: mass equilibrated, 0 to 90% to 0% RH, 25° C.
Method: (§1) The moisture sorption properties of the feed API were analyzed by DVS Intrinsic instrument (Surface Measurement System). Approximately 20 to 50 mg of API was weighed onto an aluminum pan and loaded into the instrument equilibrated at 25° C. The sample was equilibrated under a dry atmosphere (0% relative humidity) for 60 minutes, before increasing the humidity from 0% to 30% at 5% step increment and from 30% to 90% at 10% step increment. A desorption cycle was also applied from 90% to 30% (10% step decrement) and from 30% to 0% (5% step decrement). A rate of change in mass per time unit (dm/dt) of 0.002%/min was set as the equilibrium parameter. Kinetic and isotherm graphs were calculated.
as §1, with “feed API (active pharmaceutical ingredient) were analyzed” for “feed API were analyzed”, “step decrement). […] Kinetic and” for “step decrement). A rate of change in mass per time unit (dm/dt) of 0.002%/min was set as the equilibrium parameter. Kinetic and”, “were calculated. […]” for “were calculated.”

[2] = Solubility determinations in SIF buffers FaSSIF, FeSSIF, FaSSGF (Example 8, Experiment 5); settings: 37 °C, thermodynamic from solid
Outline: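 Suspensions in FaSSIF, FeSSIF or FaSSGF held at 37° C for 24 h, sampled at set time points and centrifuged. Pellets checked by XRPD, wet and dried, for form change.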

[3] = Equilibrium humidity evaluation 75% RH/40° C., 10 days (Example 8, Experiment 6); format: physicochemical; settings: 75% RH/40° C.
Method: The experimental procedure that accompany this experiment is provided in Section G.ii.
All forms were maintained under constant equilibrium humidity (75% RH). XRPD, DSC, TGA, PLM and ^1H NMR analyses were performed on the absorbents at t=5 d and t=10 d, to confirm their physical fates and to determine the extent of residual solvent exchange or sequestration.
100 mg portions of Tabernanthalog salts ([…]) were placed in the relevant open vials. The powders were finely divided and distributed evenly over the base of the vial, such that equal material coverage across the panel was observed. These samples were then maintained 40° C. under 75% RH. The samples were sub-sampled at intervals of 5 and 10 days and analyzed by ^1H NMR, HPLC, XRPD, DSC, TGA and PLM, for evidence of phase change or chemical degradation.

[4] = Dynamic vapour sorption (DVS) of selected salts (Example 8); format: physicochemical; settings: 0 to 90 to 0% RH, 25° C., dm/dt 0.002%/min
Outline: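 Sorption/desorption isotherms on 20–50 mg sample at 25°C after 60 min at 0% RH: 5% steps to 30%, 10% steps to 90%, then reverse. Equilibrium criterion dm/dt 0.002%/min; kinetic and isotherm curves derived.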

[5] = Heat-up/cool-down crystallisation screen of sorbate salt (Example 10, Experiments 5, 8); format: physicochemical; settings: Experiment 8; repeat of HUCD crystallisations aiming at Pattern #1 (water) and Pattern #6 (heptane/ethyl formate); wet pellet
Method: The relevant solvent (0.225 ml, 3.0 vol) was added to the appropriate vial and the suspensions were stirred and warmed to temperature. If dissolution was not observed, further solvent was added until the solute dissolved, or aliquots of a secondary co-solvent were added to complete dissolution. Once dissolved, the solutions were left to cool down and stand undisturbed under sub-ambient conditions for several days. After crystallisation was judged complete, the products were isolated by centrifugation and the pellets were dried at 40° C. under reduced pressure. Products from the crystallisation (wet and dry) were initially analysed by XRPD (9-minute method), further analyses of certain products were performed by ^1H NMR, DSC and TGA, if the diffraction pattern indicated differences.

[6] = as above; format: physicochemical; settings: Experiment 8; repeat of HUCD crystallisations; dried ca. 2 h under N2 flux at ambient temperature
[7] = Calibration curve of non-ionized Tabernanthalog / HPLC sample diluent selection; format: physicochemical; settings: acetonitrile/water
Source text: Separate portions of Tabernanthalog (native) were weighed out into aluminum boats and were charged to the relevant volumetric flasks. […] Peak areas of the calibrants were plotted against concentration to generate the corresponding calibration curve with slope 27622 and R^2 0.9917 (FIG. 437).
It is noted that tabernanthalog is insoluble in typical HPLC sample diluents, acetonitrile/water. Therefore, DMSO and water were investigated as sample diluents.
Thus, DMSO/water (1/1, v/v) was selected as the appropriate diluent composition to perform the study and generate the calibration curve, for the SIF panel solubility.

[8] = target: 5-HT2A (Homo sapiens, UniProt P28223); settings: reported by Dong et al., Olson et al., Cameron et al.; cited from earlier work
[9] = reported by Dong et al., Olson et al., Cameron et al.; cited from earlier work

Sequence of 5-HT2A (P28223 whole entry): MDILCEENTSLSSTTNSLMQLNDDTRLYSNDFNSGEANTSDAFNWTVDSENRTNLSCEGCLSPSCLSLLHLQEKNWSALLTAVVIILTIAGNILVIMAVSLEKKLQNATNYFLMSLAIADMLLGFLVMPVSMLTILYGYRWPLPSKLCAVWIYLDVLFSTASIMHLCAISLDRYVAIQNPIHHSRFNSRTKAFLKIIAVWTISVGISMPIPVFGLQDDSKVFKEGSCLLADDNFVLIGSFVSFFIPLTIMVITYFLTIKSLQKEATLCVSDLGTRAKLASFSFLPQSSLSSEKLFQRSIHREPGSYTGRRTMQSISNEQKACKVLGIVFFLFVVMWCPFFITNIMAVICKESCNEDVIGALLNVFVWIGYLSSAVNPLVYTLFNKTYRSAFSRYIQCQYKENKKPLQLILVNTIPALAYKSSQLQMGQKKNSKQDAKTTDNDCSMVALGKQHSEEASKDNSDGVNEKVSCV

With `COc1ccc2c3c([nH]c2c1)CCN(C)CC3.O=C(O)/C=C/C(=O)O` [8-Methoxy-3-methyl-2,4,5,6-tetrahydro-1H-azepino[4,5-b]indole fumarate salt (polymorph Form A)] the DVS isotherm [1] was “hygroscopic isotherm with negligible hysteresis”, the solubility at 24 h ([2]; pH 1.6, fassgf or other biorelevant) was over 30 mg/mL and the solubility at 24 h ([2]; pH 5, fessif) was over 30 mg/mL. The solubility at 24 h ([2]; pH 6.5, fassif) was over 30 mg/mL, the “change in chemical purity (trended HPLC)” value ([3]; after 10 days) was “slight decrease in chemical purity” and the “water uptake / hydrate formation (TGA, DSC)” value ([3]; t=5 d and t=10 d) was “no significant water uptake”. For the same molecule, the “powder diffraction pattern versus input (form stability)” value ([3]; t=5 days and t=10 days) was “resembled the input phase” and the DVS sorption/desorption isotherm [4] was “hygroscopic isotherm, with negligible hysteresis”.
For `CC=CC=CC(=O)O.COc1ccc2c3c([nH]c2c1)CCN(C)CC3` [Experiment 8-Sample B], the “XRPD (centrifuged, wet)” value [5] was “Form A” and the “XRPD (under nitrogen flow)” value [6] was “Form A”.
For `COc1ccc2c3c([nH]c2c1)CCN(C)CC3` [tabernanthalog, 8-methoxy-3-methyl-1,2,3,4,5,6-hexahydroazepino[4,5-b]indole], the “solubility in typical HPLC sample diluents” value [7] is listed as “insoluble”, the 5-HT2A activity [8] is listed as “have 5-HT2A activity” and the hallucinogenic effect [9] is listed as “non-hallucinogenic”.
